“Also recorded” adds a separate entry of the source.
Assay: Phase 1/2 clinical study: safety, treatment-emergent adverse events
Type: in vivo
Protocol: This study includes monotherapy as well as combination treatment parts. The monotherapy part includes Phase 1 dose escalation and dose expansion as well as Phase 2. […] Phase 1 dose escalation will proceed prior to start of Phase 1b or Phase 2. Once a recommended Phase 2 dose (RP2D) is identified in Phase 1, enrollment can commence to the Phase 1b combination therapies and Phase 2 monotherapy cohorts.
Dose escalation will follow a 3+3 design starting with a 25 mg QD dose (followed by 50 mg QD (dose level cohort 2), 100 mg QD (dose level cohort 3), 150 mg QD (dose level cohort 4), 200 mg QD (dose level cohort 5), 250 mg QD (dose level cohort 6), and 300 mg QD (dose level cohort 7)). Cycle length will be 28 days.
Any toxicity, regardless of the NCI CTCAE v.5 grade, resulting in discontinuation, does reduction or considered a DLT unless the SRC determines the toxicity if clearly unrelated to study drug (i.e., related to the patient's underlying disease other medical condition or concomitant medications).

COc1ccc(F)cc1C(=O)NCc1ccc(-c2nn([C@@H](C)C(F)(F)F)c(N)c2C(N)=O)cc1 [BTK-I, (S)-5-amino-3-(4-((5-fluoro-2-methoxybenzamido)methyl)phenyl)-1-(1,1,1-trifluoropropane-2-yl)-1H-pyrazole-4-carboxamide]
Abdominal pain (TEAE) (25 mg QD (N = 5)): 1 (20.0) n(%) | Anaemia (TEAE) (25 mg QD (N = 5)): 0 (0.0) n(%) | Back pain (TEAE) (25 mg QD (N = 5)): 0 (0.0) n(%) | Constipation (TEAE) (25 mg QD (N = 5)): 0 (0.0^ n(%) | Contusion (TEAE) (25 mg QD (N = 5)): 0 (0.0) n(%) | Cough (TEAE) (25 mg QD (N = 5)): 3 (60.0) n(%) | Diarrhoea (TEAE) (25 mg QD (N = 5)): 3 (60.0) n(%) | Dizziness (TEAE) (25 mg QD (N = 5)): 2 (40.0) n(%) | Dyspnoea (TEAE) (25 mg QD (N = 5)): 0 (0.0) n(%) | Fatigue (TEAE) (25 mg QD (N = 5)): 3 (60.0) n(%) | Headache (TEAE) (25 mg QD (N = 5)): 2 (40.0) n(%) | Nausea (TEAE) (25 mg QD (N = 5)): 2 (40.0) n(%) | Neutropenia (TEAE) (25 mg QD (N = 5)): 0 (0.0) n(%) | Neutrophil count decreased (TEAE) (25 mg QD (N = 5)): 1 (20.0) n(%) | Oedema peripheral (TEAE) (25 mg QD (N = 5)): 1 (20.0) n(%) | Rash maculopapular (TEAE) (25 mg QD (N = 5)): 0 (0.0) n(%) | Subjects with Any TEAEs (25 mg QD (N = 5)): 5 (100.0) n(%) | Upper respiratory tract infection (TEAE) (25 mg QD (N = 5)): 1 (20.0) n(%) | dose limiting toxicities (25 mg to 300 mg QD): no dose limiting toxicities or dose reductions; also recorded: DLTS have not been observed | Abdominal pain (TEAE) (50 mg QD (N = 6)): 0 (0.0) n(%) | Anaemia (TEAE) (50 mg QD (N = 6)): 0 (0.0) n(%) | Back pain (TEAE) (50 mg QD (N = 6)): 0 (0.0) n(%) | Constipation (TEAE) (50 mg QD (N = 6)): 0 (0.0) n(%) | Contusion (TEAE) (50 mg QD (N = 6)): 2 (33.3) n(%) | Cough (TEAE) (50 mg QD (N = 6)): 2 (33.3) n(%) | Diarrhoea (TEAE) (50 mg QD (N = 6)): 1 (16.7) n(%) | Dizziness (TEAE) (50 mg QD (N = 6)): 0 (0.0) n(%) | Dyspnoea (TEAE) (50 mg QD (N = 6)): 0 (0.0) n(%) | Fatigue (TEAE) (50 mg QD (N = 6)): 3 (50.0) n(%) | Headache (TEAE) (50 mg QD (N = 6)): 1 (16.7) n(%) | Nausea (TEAE) (50 mg QD (N = 6)): 2 (33.3) n(%) | Neutropenia (TEAE) (50 mg QD (N = 6)): 1 (16.7) n(%) | Neutrophil count decreased (TEAE) (50 mg QD (N = 6)): 0 (0.0) n(%) | Oedema peripheral (TEAE) (50 mg QD (N = 6)): 1 (16.7) n(%) | Pyrexia (TEAE) (50 mg QD (N = 6)): 0 (0.0) n(%) | Rash maculopapular (TEAE) (50 mg QD (N = 6)): 0 (0.0) n(%) | Subjects with Any TEAEs (50 mg QD (N = 6)): 6 (100.0) n(%) | Upper respiratory tract infection (TEAE) (50 mg QD (N = 6)): 3 (50.0) n(%) | Abdominal pain (TEAE) (100 mg QD (N = 9)): 2 (2.2) n(%) | Anaemia (TEAE) (100 mg QD (N = 9)): 2 (22.2) n(%) | Back pain (TEAE) (100 mg QD (N = 9)): 0 (0.0) n(%) | Constipation (TEAE) (100 mg QD (N = 9)): 0 (0.0) n(%) | Contusion (TEAE) (100 mg QD (N = 9)): 0 (0.0) n(%) | Cough (TEAE) (100 mg QD (N = 9)): 0 (0.0) n(%) | Diarrhoea (TEAE) (100 mg QD (N = 9)): 3 (33.3) n(%) | Dizziness (TEAE) (100 mg QD (N = 9)): 1 (11.1) n(%) | Dyspnoea (TEAE) (100 mg QD (N = 9)): 2 (22.2) n(%) | Fatigue (TEAE) (100 mg QD (N = 9)): 2 (22.2) n(%) | Headache (TEAE) (100 mg QD (N = 9)): 1 (11.1) n(%) | Nausea (TEAE) (100 mg QD (N = 9)): 1 (11.1) n(%) | Neutropenia (TEAE) (100 mg QD (N = 9)): 0 (0.0) n(%) | Neutrophil count decreased (TEAE) (100 mg QD (N = 9)): 0 (0.0) n(%) | Oedema peripheral (TEAE) (100 mg QD (N = 9)): 0 (0.0) n(%) | Pyrexia (TEAE) (100 mg QD (N = 9)): 1 (11.1) n(%) | Rash maculopapular (TEAE) (100 mg QD (N = 9)): 1 (11.1) n(%) | Subjects with Any TEAEs (100 mg QD (N = 9)): 8 (88.9) n(%) | Upper respiratory tract infection (TEAE) (100 mg QD (N = 9)): 1 (11.1) n(%) | Abdominal pain (TEAE) (150 mg QD (N = 20)): 1 (5.0) n(%) | Anaemia (TEAE) (150 mg QD (N = 20)): 3 (15.0) n(%) | Back pain (TEAE) (150 mg QD (N = 20)): 5 (25.0) n(%) | Constipation (TEAE) (150 mg QD (N = 20)): 5 (25.0) n(%) | Contusion (TEAE) (150 mg QD (N = 20)): 3 (15.0) n(%) | Cough (TEAE) (150 mg QD (N = 20)): 3 (15.0) n(%) | Diarrhoea (TEAE) (150 mg QD (N = 20)): 5 (25.0) n(%) | Dizziness (TEAE) (150 mg QD (N = 20)): 2 (10.0) n(%) | Dyspnoea (TEAE) (150 mg QD (N = 20)): 2 (10.0) n(%) | Fatigue (TEAE) (150 mg QD (N = 20)): 3 (15.0) n(%) | Headache (TEAE) (150 mg QD (N = 20)): 4 (20.0) n(%)
